Laboratory results: ChEMBL document CHEMBL6134849, “A Water-Soluble Aggregation-Induced Emission Photosensitizer with Intrinsic Antibacterial Activity as an Antiplanktonic and Antibiofilm Therapeutic Agent” (J Med Chem, 2025)
Active and inactive are the calls of the source. The rule behind the calls is not given here.

Tests used:
Staphylococcus aureus [1] = experiment: Downregulation of glyQS expression level in Staphylococcus aureus at 6.25 uM incubated for 1 hr in absence of light irradiation; type: functional
Staphylococcus aureus [2] = experiment: Downregulation of thrS expression level in Staphylococcus aureus at 6.25 uM incubated for 1 hr in absence of light irradiation; type: functional
Staphylococcus aureus [3] = experiment: Downregulation of gltX expression level in Staphylococcus aureus at 6.25 uM incubated for 1 hr in absence of light irradiation; type: functional
Staphylococcus aureus [4] = experiment: Downregulation of hisS expression level in Staphylococcus aureus at 6.25 uM incubated for 1 hr in absence of light irradiation; type: functional
Staphylococcus aureus [5] = experiment: Downregulation of lysS expression level in Staphylococcus aureus at 6.25 uM incubated for 1 hr in absence of light irradiation; type: functional
Staphylococcus aureus [6] = experiment: Downregulation of tyrS expression level in Staphylococcus aureus at 6.25 uM incubated for 1 hr in absence of light irradiation; type: functional
Staphylococcus aureus [7] = experiment: Downregulation of valS expression level in Staphylococcus aureus at 6.25 uM incubated for 1 hr in absence of light irradiation; type: functional
Staphylococcus aureus [8] = experiment: Downregulation of asnS expression level in Staphylococcus aureus at 6.25 uM incubated for 1 hr in absence of light irradiation; type: functional
Staphylococcus aureus [9] = experiment: Downregulation of ileS expression level in Staphylococcus aureus at 6.25 uM incubated for 1 hr in absence of light irradiation; type: functional
Cell membrane [10] = experiment: Induction of cell membrane damage in Staphylococcus aureus assessed as DNA leakage at 10 uM preincubated with compound for 20 mins followed by 600 nm light irradiation for 45 min by absorption based plate reader analysis; type: subcellular; details: time 65.0 min
Cell membrane [11] = experiment: Induction of cell membrane damage in Staphylococcus aureus assessed as RNA leakage at 10 uM preincubated with compound for 20 mins followed by 600 nm light irradiation for 45 min by absorption based plate reader analysis; type: subcellular; details: time 65.0 min
Cell membrane [12] = experiment: Induction of cell membrane damage in Staphylococcus aureus assessed as protein leakage at 10 uM preincubated with compound for 20 mins followed by 600 nm light irradiation for 45 min by absorption based plate reader analysis; type: subcellular; details: time 65.0 min
Cell membrane [13] = experiment: Induction of cell membrane damage in Pseudomonas aeruginosa assessed as DNA leakage at 10 uM preincubated with compound for 20 mins followed by 600 nm light irradiation for 45 min by absorption based plate reader analysis; type: subcellular; details: time 65.0 min
Cell membrane [14] = experiment: Induction of cell membrane damage in Pseudomonas aeruginosa assessed as RNA leakage at 10 uM preincubated with compound for 20 mins followed by 600 nm light irradiation for 45 min by absorption based plate reader analysis; type: subcellular; details: time 65.0 min
Cell membrane [15] = experiment: Induction of cell membrane damage in Pseudomonas aeruginosa assessed as protein leakage at 10 uM preincubated with compound for 20 mins followed by 600 nm light irradiation for 45 min by absorption based plate reader analysis; type: subcellular; details: time 65.0 min
Cell membrane [16] = experiment: Induction of cell membrane damage in Pseudomonas aeruginosa assessed as bacterial cell shrinkage at 10 uM preincubated with compound for 20 mins followed by 600 nm light irradiation for 45 min by SEM analysis; type: subcellular; details: time 65.0 min
Cell membrane [17] = experiment: Induction of cell membrane damage in Pseudomonas aeruginosa assessed as bacterial cell collapse at 10 uM preincubated with compound for 20 mins followed by 600 nm light irradiation for 45 min by SEM analysis; type: subcellular; details: time 65.0 min
Cell membrane [18] = experiment: Induction of cell membrane damage in Staphylococcus aureus assessed as bacterial cell shrinkage at 10 uM preincubated with compound for 20 mins followed by 600 nm light irradiation for 45 min by SEM analysis; type: subcellular; details: time 65.0 min
Cell membrane [19] = experiment: Induction of cell membrane damage in Staphylococcus aureus assessed as bacterial cell collapse at 10 uM preincubated with compound for 20 mins followed by 600 nm light irradiation for 45 min by SEM analysis; type: subcellular; details: time 65.0 min
Staphylococcus aureus [20] = experiment: Downregulation of hlgB protein expression in Staphylococcus aureus under light irradiation; type: functional
Staphylococcus aureus [21] = experiment: Downregulation of hlgC protein expression in Staphylococcus aureus under light irradiation; type: functional
Staphylococcus aureus [22] = experiment: Downregulation of ssl7 protein expression in Staphylococcus aureus under light irradiation; type: functional
Staphylococcus aureus [23] = experiment: Downregulation of cell wall organization related proteins in Staphylococcus aureus under light irradiation; type: functional, organism-based
[24] = Cytotoxicity against human HFF-1 cells assessed as cell viability at 40 uM in presence of 600 nm light irradiation for 45 mins by MTT assay relative to control; type: toxicity, cell-based; details: read-out: Activity
Staphylococcus aureus [25] = experiment: (§1) In vivo antibacterial activity against methicillin-resistant Staphylococcus aureus ATCC 43300 infected in female BALB/c mouse skin wound infection model assessed as reduction in wound area at 90 uM pre-infected with bacteria for 24 hrs followed by topical compound addition for 10 mins in presence of 600 nm 60 mW/cm2 light irradiation for 15 mins and measured on day 4; type: functional, organism-based; details: time 4.0 day
Pseudomonas aeruginosa [26] = experiment: as §1, with “Pseudomonas aeruginosa” for “Staphylococcus aureus”, “27853” for “43300”; type: functional, organism-based; details: time 4.0 day
Staphylococcus aureus [27] = experiment: (§2) In vivo antibacterial activity against methicillin-resistant Staphylococcus aureus ATCC 43300 infected in female BALB/c mouse skin wound infection model assessed as reduction in inflammatory cell infiltration in wound at 90 uM pre-infected with bacteria for 24 hrs followed by topical compound addition for 10 mins in presence of 600 nm 60 mW/cm2 light irradiation for 15 mins and measured on day 6 by H and E staining based analysis; type: functional, organism-based; details: time 6.0 day
Staphylococcus aureus [28] = experiment: as §2, with “Masson trichrome” for “H and E”; type: functional, organism-based; details: time 6.0 day
Staphylococcus aureus [29] = experiment: as §2, with “collagen deposition” for “reduction in inflammatory cell infiltration”; type: functional, organism-based; details: time 6.0 day
Staphylococcus aureus [30] = experiment: as §2, with “collagen deposition” for “reduction in inflammatory cell infiltration”, “Masson trichrome” for “H and E”; type: functional, organism-based; details: time 6.0 day
Pseudomonas aeruginosa [31] = experiment: Antibiofilm activity against Pseudomonas aeruginosa assessed as bacterial eradication by measuring green fluorescence signal at 10 uM incubated for 1 hrs in presence of light irradiation by calcein-AM fluorescence dye based analysis; type: functional, organism-based
Staphylococcus aureus [32] = experiment: Antibiofilm activity against Staphylococcus aureus assessed as bacterial eradication by measuring green fluorescence signal at 10 uM incubated for 1 hrs in presence of light irradiation by calcein-AM fluorescence dye based analysis; type: functional, organism-based
Staphylococcus aureus [33] = experiment: Selective drug uptake in Staphylococcus aureus co-cultured with human HFF-1 cells by measuring fluorescence signal at 10 uM incubated for 20 mins; type: ADME, organism-based; details: hff-1, 20 min
[34] = Drug uptake in human HFF-1 cells co-cultured with Staphylococcus aureus by measuring fluorescence signal at 10 uM incubated for 20 mins; type: ADME, cell-based; details: hff-1, 20 min
Pseudomonas aeruginosa [35] = experiment: Selective drug uptake in Pseudomonas aeruginosa co-cultured with human HFF-1 cells by measuring fluorescence signal at 10 uM incubated for 20 mins; type: ADME, organism-based; details: hff-1, 20 min

C#CCC[n+]1c(/C=C/c2ccc(-c3ccc(N(c4ccc(OCCC[N+](C)(C)C)cc4)c4ccc(OCCC[N+](C)(C)C)cc4)cc3)s2)sc2ccccc21.[Br-].[Br-].[Br-]
Activity (Staphylococcus aureus [1]): Active | Activity (Staphylococcus aureus [2]): Active | Activity (Staphylococcus aureus [3]): Active | Activity (Staphylococcus aureus [4]): Active | Activity (Staphylococcus aureus [5]): Active | Activity (Staphylococcus aureus [6]): Active | Activity (Staphylococcus aureus [7]): Active | Activity (Staphylococcus aureus [8]): Active | Activity (Staphylococcus aureus [9]): Active | Activity (Cell membrane [10]): Active | Activity (Cell membrane [11]): Active | Activity (Cell membrane [12]): Active | Activity (Cell membrane [13]): Active | Activity (Cell membrane [14]): Active | Activity (Cell membrane [15]): Active | Activity (Cell membrane [16]): Active | Activity (Cell membrane [17]): Active | Activity (Cell membrane [18]): Active | Activity (Cell membrane [19]): Active | Activity (Staphylococcus aureus [20]): Active | Activity (Staphylococcus aureus [21]): Active | Activity (Staphylococcus aureus [22]): Active | Activity (Staphylococcus aureus [23]): Active | viability at 0.75 h, 40 µM [24]: < 90% | Activity (Staphylococcus aureus [25]): Active | Activity (Pseudomonas aeruginosa [26]): Active | Activity (Staphylococcus aureus [27]): Active | Activity (Staphylococcus aureus [28]): Active | Activity (Staphylococcus aureus [29]): Active | Activity (Staphylococcus aureus [30]): Active | Activity (Pseudomonas aeruginosa [31]): Active | Activity (Staphylococcus aureus [32]): Active | Drug uptake (Staphylococcus aureus [33]): Active | Drug uptake [34]: Not_active | Drug uptake (Pseudomonas aeruginosa [35]): Active
